Results: patent publication US7307102B2, “Method of preventing or treating estrogen-dependent diseases and disorders” (Duke University, priority 1997, dated 2007)

Legend:
[1] = test system: MCF-7 breast cancer tumors; assay: Dose response study, MCF-7 breast cancer tumors in nude mice (Example 5); format: in vivo, mouse; settings: after 8 weeks, 0.6 mg and 1.0 mg vs 1.0 mg tamoxifen, FIG. 10
Description: 10 OVX donor mice were injected with 5 million MCF-7 cells. The resulting tumors were transplanted to recipient mice. All animals were given slow release estradiol pellets. […] Tumors were measured daily with calipers, and the area calculated as follows: Area=½×w/2×π.

[2] = biological target: T1, wild-type human estrogen receptor (ERwt) (Homo sapiens, UniProt P03372); assay: C3 promoter-luciferase cotransfection assay in HepG2 cells, ERwt; format: cell-based
T1 construct: expressed in transfected cells; host or cells: HepG2
T1 sequence (P03372 1-595): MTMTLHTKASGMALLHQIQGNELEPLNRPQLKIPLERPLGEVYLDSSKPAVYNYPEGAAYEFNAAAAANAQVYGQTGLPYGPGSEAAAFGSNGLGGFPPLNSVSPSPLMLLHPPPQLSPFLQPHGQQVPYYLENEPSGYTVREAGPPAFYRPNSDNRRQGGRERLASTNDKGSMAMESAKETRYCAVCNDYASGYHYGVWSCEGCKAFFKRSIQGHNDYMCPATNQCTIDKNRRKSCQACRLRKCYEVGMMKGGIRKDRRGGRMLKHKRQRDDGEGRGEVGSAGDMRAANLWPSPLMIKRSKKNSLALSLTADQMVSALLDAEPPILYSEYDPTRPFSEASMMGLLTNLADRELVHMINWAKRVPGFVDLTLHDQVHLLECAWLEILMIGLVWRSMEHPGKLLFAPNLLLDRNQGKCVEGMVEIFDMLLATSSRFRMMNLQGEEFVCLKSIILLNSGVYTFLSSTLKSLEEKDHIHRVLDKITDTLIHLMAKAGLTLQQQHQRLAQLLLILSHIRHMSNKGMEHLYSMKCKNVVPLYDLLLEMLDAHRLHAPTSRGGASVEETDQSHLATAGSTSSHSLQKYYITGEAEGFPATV
Description: FIGS. 1A and 1B. […] The human C3 promoter (−1807 to +58) fused to the firefly luciferase reporter gene was transfected along with an expression plasmid containing (FIG. 1A) the wild-type human estrogen receptor (ERwt), or (FIG. 1B) a mutated ER in which the AF-2 function had been disrupted (ER-TAFl) into HepG2 cells and tested for transcriptional activation in the presence of increasing concentrations of ER-modulator as indicated. Transfections were normalized for efficiency and cell number by cotransfecting an expression plasmid containing β-galactosidase. The normalized response was obtained by dividing light units by the activity of β-galactosidase as measured in an enzymatic assay. Triplicate transfections were performed. The data shown are representative of multiple experiments performed under similar conditions.
FIGS. 2A-2C. […] FIG. 2A. […] FIG. 2B. […] FIG. 2C. […] Transfections were normalized for efficiency and cell number by cotransfecting an expression plasmid containing β-galactosidase. The normalized response was obtained by dividing light units by the activity of β-galactosidase as measured in an enzymatic assay. Representative assays are shown in which triplicate transfections were performed. Error bars represent the standard error of the mean (SEM).
HepG2 cells were maintained in Modified Eagles Medium (MEM) (Life Technologies, Grand Island, N.Y.) plus 10% Fetal Calf Serum (FCS) (Life Technologies). Cells were plated in 24 well plates (coated with gelatin) 24 hours prior to transfection. DNA was introduced into the cells using Lipofectin (Life Technologies). Briefly, triplicate transfections were performed using 3 μg of total DNA. For standard transfections, 500 ng of pCMV-β-Gal (normalization vector), 1500 ng reporter (variable) and 1000 ng receptor (pRST7-hER (Dana et al, Mol. Endocrinol. 8:1193-1207 (1994)) were used for each triplicate. Incubation of the cells with Lipofectin proceeded for 3 hrs, at which time media was removed, cells were washed with PBS and then induced with the appropriate hormone diluted in phenol red-free media containing 10% charcoal stripped CS (Cyclone Inc.). Incubation with hormone continued for 48 hrs, after which cells were lysed and assayed for luciferase and β-galactosidase activity as previously described (Norris et al, JBC 270:22777-22782 (1995)).
A series of in vitro screens have been developed that permit the classification of ER-modulators into four mechanistically distinct groups (Tzukerman et al, Mol. Endocrinol. 8:21-30 (1994)). […] Using these assays, it has been possible to derive “fingerprints” of known ER-modulators (McDonnell et al, Mol. Endocrinol. 9:659-669 (1995)).
Subsequently, the transfected cells were assayed for luceriferase and β-galactosidase activity. Each data point in this experiment represents the average of triplicate determinations of the transcriptional activity under given experimental conditions.

[3] = test system: MCF-7 breast cancer tumors; assay: Antiestrogen treatment of MCF-7 breast cancer tumors in nude mice (Example 4); format: in vivo, mouse; settings: two highest doses of GW5638 (0.6 mg, 1.0 mg) vs 1.0 mg tamoxifen, FIG. 9
Description: FIG. 9. Effect of anti-estrogen treatment on MCF-7 breast cancer tumors in nude mice.
This study was conducted using tumor cells derived from the MCF-7 breast cancer line. This line is estrogen and progesterone receptor positive, dependent upon hormone and sensitive to antihormones. The tumor cells were inoculated into the flank of ovariectomized, athymic BALB/c Urd nunu mice. The mice were supplemented with slow release estrogen pellets. Animals were given subcutaneous daily injections as indicated below:
Group 1: control (corn oil)
Using calipers, tumors were measured in 2 dimensions, where tumor area=½×w/2×π.

[4] = Total serum cholesterol in ovariectomized rats; format: in vivo, rat; settings: OVX rats, 28 days, lowest concentration tested, FIG. 4
Description: Animal preparation. […] At sacrifice, animals were euthanized with C02, body weights were recorded and the uteri were removed and weighed. Uterus, vagina and mammary tissue were fixed in 10% neutral buffered formalin. Samples for histologic processing were taken from the mid-point of each uterine horn. Tissue samples were embedded in paraffin, stained with haematoxylin and eosin and evaluated microscopically. Lumbar vertebrae and both left and right tibiae were excised. Total blood cholesterol was measured (Roche Biomedical Laboratories).

reversal of the inverse agonist activity of ICI182,780 ([2]; C3 promoter, co-addition with ICI182,780, FIG. 2C): partially reversed
inhibition of the agonist activity manifested by tamoxifen or estradiol ([2]; ERwt, 10^−8M 17-β-estradiol or tamoxifen, FIG. 2A): inhibited
SMILES: CC/C(=C(\c1ccccc1)c1ccc(/C=C/C(=O)O)cc1)c1ccccc1 [GW5638]
tumor growth compared with tamoxifen [1]: indistinguishable from the 1.0 mg tamoxifen
agonist / inverse agonist activity on the C3 promoter ([2]; ERwt, compound alone, FIG. 1A/2A): do not demonstrate any agonist or antagonist activity
effect on tumors compared with tamoxifen [3]: no significant difference
total serum cholesterol level [4]: as effective as estradiol in decreasing serum cholesterol levels
